The target of one test is T1, RIPK1 (Homo sapiens, UniProt Q13546).
T1 sequence (Q13546 1-671): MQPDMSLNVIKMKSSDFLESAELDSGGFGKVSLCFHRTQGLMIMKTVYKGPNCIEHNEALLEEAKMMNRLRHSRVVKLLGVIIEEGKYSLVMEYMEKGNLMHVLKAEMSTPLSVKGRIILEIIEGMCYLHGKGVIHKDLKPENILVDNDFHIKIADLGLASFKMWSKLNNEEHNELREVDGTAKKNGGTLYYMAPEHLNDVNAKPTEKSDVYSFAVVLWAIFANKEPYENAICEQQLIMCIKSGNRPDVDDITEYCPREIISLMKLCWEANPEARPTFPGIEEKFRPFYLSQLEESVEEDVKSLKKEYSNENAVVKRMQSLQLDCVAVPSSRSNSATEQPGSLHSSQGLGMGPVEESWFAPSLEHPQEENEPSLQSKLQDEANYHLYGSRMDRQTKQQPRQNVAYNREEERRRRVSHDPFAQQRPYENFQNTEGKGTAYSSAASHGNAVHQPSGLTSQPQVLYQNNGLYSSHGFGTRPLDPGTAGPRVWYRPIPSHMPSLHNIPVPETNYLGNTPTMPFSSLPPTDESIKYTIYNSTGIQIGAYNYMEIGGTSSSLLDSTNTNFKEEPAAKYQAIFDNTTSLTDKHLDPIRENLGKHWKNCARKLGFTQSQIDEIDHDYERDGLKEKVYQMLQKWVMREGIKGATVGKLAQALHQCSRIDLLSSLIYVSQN
Put plainly: RIPK1 ADP-Glo biochemical kinase assay. As to conditions: read-out: RIPK1 ADP-Glo Kinase (IC50). Here is the method:
In this example, compounds of the disclosure were evaluated using a biochemical assay using the ADP-Glo™ technology.
ADP-Glo™ (Promega, Madison, WI, USA) reagents were thawed at ambient temperature. Kinase Detection Reagent was prepared by mixing kinase detection buffer with the lyophilized kinase detection substrate.
A […] stock volume of 5× Reaction Kinase Buffer was made by mixing 1000 μl of 1M MgCl2, 500 μl of 1M Tris-HCL pH7.4, 0.5 mg/ml (25 mg) of BSA, and 3475 μl of distilled H2O. A 3 ml 2× working stock volume of Reaction Kinase Buffer was made containing a final concentration of 100 μM DTT and 4 mM MnCl2.
Components of RIPK1 enzyme (Rigel Pharmaceuticals, South San Francisco, CA, USA) were thawed on ice. Diluted RIPK1 was prepared in 1× Kinase Reaction Buffer (diluted from 2× buffer) to 31 ng/well.
1.0 ul of diluted compound was added to a 384 well plate in duplicate. […] The final reaction volume was 5.0 μl.
The plate was quickly centrifuged and the reaction was incubated at 30° C. for 30 minutes. Adding 5 μl of ADP-Glo™ terminated the reaction. The plate was quickly centrifuged and the reaction was incubated at room temperature for 40 minutes. Kinase Detection Reagent was then added and incubated at room temperature for 30 minutes. The relative light unit (RLU) of kinase reaction was determined by luminescent (Luminescence 0.1 s) using a Wallac Victor2 Luminometer (PerkinElmer, Waltham, MA, USA).
In general terms: ADP-Glo first removes unused ATP, then detects ADP through luciferase.

A further test concerns L929 cells. Description: L929 cell necroptosis assay (TNFa + zVAD, CellTiter-Glo recovery). Type of test: cell-based, murine. As to conditions: Mus musculus, L929, 18 h, TNFa 2 ng/mL + zVAD-fmk, read-out: L929-CTG-recovery, L929, TNFa + zVAD (IC50). The method, then: (§1) In this example, U937 and L929 cells were exposed to compounds of the present disclosure and a cell necroptosis assay was conducted to evaluate the compounds' activity against human RIP1 and murine RIP1.
(§2) U937 and L929 cells were obtained from the American Type Culture Collection (Manassas, VA, USA). Both cells were maintained in logarithmic growth phase in complete RPMI 1640 media (Sigma, ST Louis, MO, USA) supplemented with 10% fetal bovine serum (Sigma, ST Louis, MO, USA) at 37° C. with 5% CO2. For necroptosis assay, L929 cells were plated for 18 h in 100 μL/well medium at 10K cells/well in Costar 96-well black clear-bottom plates (Fisher Scientific, Hampton, NH, USA); U937 cells were plated on the day of the assay in 50 μL/well medium containing 60 uM zVAD-fmk (Lonza, Basel, Switzerland) at 50K cells/well. Medium from L929 cells were removed from the 96-well plates and replaced with 50 μL/well new medium containing 40 uM zVAD-fmk. Each compound of the present disclosure evaluated in this example was serially diluted in DMSO from 2.5 mM in 4-fold dilutions, and then diluted 1:125 in complete medium. 50 μL/well 2× of the compound was then added to the cells in the plates. The cells were pre-incubated with the compound for 1 hour at 37° C. with 5% CO2 and before addition of 10 μL/well 11×TNFa (Peprotech, Rocky Hill, NJ, USA) to give a final concentration of 2 ng/mL for TNFa. The relative amount of necroptosis cells was determined by luminescent using a Wallac Victor2 Luminometer (PerkinElmer, Waltham, MA, USA) and a CellTiter-Glo® Luminescent Cell Viability Reagent Assay (Promega, Madison, WI, USA) added per manufacturer instructions after 18 hours of TNFa stimulation at 37° C. with 5% CO2. This example establishes that embodiments of the compounds described herein have unexpectedly potent activity against human RIP1 and murine RIP1, which allows their assessment in in vivo mouse models of disease.
(ATP-based viability assays read luminescence as a measure of living cells.)

The subject of another test is U937 cells. Put plainly: U937 cell necroptosis assay (TNFa + zVAD, CellTiter-Glo recovery). As to conditions: Homo sapiens, U-937, 18 h, TNFa 2 ng/mL + zVAD-fmk, read-out: U937 Zvad TNF CTG Recovery, U937, TNFa + zVAD (IC50). Type of test: cell-based. The method, then: as §1, §2

Broadly, the IC50 is the concentration needed to halve the response being measured.

Take `Cc1cccc(Cc2cnn(C(=O)N[C@H]3COc4ccc(C#CC5(O)COC5)cc4N(C)C3=O)c2)n1` [I-103, (S)—N-(7-((3-Hydroxyoxetan-3-yl)ethynyl)-5-methyl-4-oxo-2,3,4,5-tetrahydrobenzo[b][1,4]oxazepin-3-yl)-4-((6-methylpyridin-2-yl)methyl)-1H-pyrazole-1-carboxamide]: the half-maximal inhibitory concentration (IC50) came to 15.4 nM on RIPK1, 1290 nM in the test on L929 cells and 105 nM in the test with U937 cells.
`CN1C(=O)[C@@H](NC(=O)c2cc(Oc3cccnc3C#N)ccn2)COc2ccc(C#CC(C)(C)O)cc21` [I-91, (S)-4-((2-cyanopyridin-3-yl)oxy)-N-(7-(3-hydroxy-3-methylbut-1-yn-1-yl)-5-methyl-4-oxo-2,3,4,5-tetrahydrobenzo[b][1,4]oxazepin-3-yl)picolinamide]: the half-inhibitory concentration (IC50) on RIPK1 is 101 nM; in the test with L929 cells, 9530 nM; in the test on U937 cells, 290 nM.
Turning to `CN1C(=O)[C@@H](NC(=O)c2cc(Cc3csc(C(F)(F)F)n3)ccn2)COc2ccc(C#CC3(O)COC3)cc21` [I-124, (S)—N-(7-((3-hydroxyoxetan-3-yl)ethynyl)-5-methyl-4-oxo-2,3,4,5-tetrahydrobenzo[b][1,4]oxazepin-3-yl)-4-((2-(trifluoromethyl)thiazol-4-yl)methyl)picolinamide], the IC50 at RIPK1 was 30.4 nM; in the test on L929 cells it was 1590 nM; with U937 cells, 113 nM.
Regarding `CN1C(=O)[C@@H](NC(=O)c2cc(Cc3cccc(F)n3)ccn2)COc2ccc(C#CC(C)(C)O)cc21` [I-13, (S)-4-((6-fluoropyridin-2-yl)methyl)-N-(7-(3-hydroxy-3-methylbut-1-yn-1-yl)-5-methyl-4-oxo-2,3,4,5-tetrahydrobenzo[b][1,4]oxazepin-3-yl)picolinamide], the figures for the IC50 on RIPK1, with L929 cells and in the test with U937 cells were 21.2 nM, 1310 nM and 42 nM, respectively.
As for `CCc1nc(Cc2ccnc(C(=O)N[C@H]3COc4ccc(C#CC5(O)COC5)cc4N(C)C3=O)c2)cs1` [I-99, (S)-4-((2-ethylthiazol-4-yl)methyl)-N-(7-((3-hydroxyoxetan-3-yl)ethynyl)-5-methyl-4-oxo-2,3,4,5-tetrahydrobenzo[b][1,4]oxazepin-3-yl)picolinamide], the half-inhibitory concentration (IC50) at RIPK1 came to 26.7 nM; with L929 cells it was 225 nM; with U937 cells it was 26.8 nM.
Turning to `CN1C(=O)[C@@H](NC(=O)n2cc(Cc3cccnc3F)cn2)COc2ccc(Br)cc21` [I-42, (S)—N-(7-Bromo-5-methyl-4-oxo-2,3,4,5-tetrahydrobenzo[b][1,4]oxazepin-3-yl)-4-((2-fluoropyridin-3-yl)methyl)-1H-pyrazole-1-carboxamide], the IC50 at RIPK1 is 18.2 nM; in the test on L929 cells, 28400 nM; in the test with U937 cells, 58.6 nM.
Consider `CN1C(=O)[C@@H](NC(=O)c2cc(Oc3cnn(C)c3)ccn2)COc2ccc(C#CC(C)(C)C)cc21` [I-132, (S)—N-(7-(3,3-dimethylbut-1-yn-1-yl)-5-methyl-4-oxo-2,3,4,5-tetrahydrobenzo[b][1,4]oxazepin-3-yl)-4-((1-methyl-1H-pyrazol-4-yl)oxy)picolinamide], for which the figures for the IC50 at RIPK1, in the test on L929 cells and with U937 cells were 24.2 nM, 71.8 nM and 4.1 nM, respectively.
Regarding `CN1C(=O)[C@@H](NC(=O)c2cc(Oc3cnn(C)c3)ccn2)COc2ccc(C#CC3(O)CCC3)cc21` [I-133, (S)—N-(7-((1-hydroxycyclobutyl)ethynyl)-5-methyl-4-oxo-2,3,4,5-tetrahydrobenzo[b][1,4]oxazepin-3-yl)-4-((1-methyl-1H-pyrazol-4-yl)oxy)picolinamide], the 50% inhibitory concentration (IC50) at RIPK1 is 14 nM; in the test with L929 cells, 58.2 nM; in the test on U937 cells it was 5.2 nM.
As to `Cc1ccc(Cc2ccnc(C(=O)N[C@H]3COc4ccc(C#CC5(O)COC5)cc4N(C)C3=O)c2)cn1` [I-73, (S)—N-(7-((3-hydroxyoxetan-3-yl)ethynyl)-5-methyl-4-oxo-2,3,4,5-tetrahydrobenzo[b][1,4]oxazepin-3-yl)-4-((6-methylpyridin-3-yl)methyl)picolinamide], the IC50 worked out at 27.6 nM on RIPK1, 1950 nM in the test on L929 cells and 91.7 nM with U937 cells.
`Cc1nc(Cc2ccnc(C(=O)N[C@H]3COc4ccc(C#CC5COC5)cc4N(C)C3=O)c2)cs1` [I-85, (S)—N-(5-methyl-7-(oxetan-3-ylethynyl)-4-oxo-2,3,4,5-tetrahydrobenzo[b][1,4]oxazepin-3-yl)-4-((2-methylthiazol-4-yl)methyl)picolinamide]: the concentration for half-maximal inhibition (IC50) on RIPK1 turned out to be 20.6 nM; in the test with L929 cells, 252 nM; in the test on U937 cells, 15.8 nM.
Regarding `CN1C(=O)[C@@H](NC(=O)c2cc(Cn3cccn3)ccn2)COc2ccc(C#CC3(O)COC3)cc21` [I-70, (S)-4-((1H-pyrazol-1-yl)methyl)-N-(7-((3-hydroxyoxetan-3-yl)ethynyl)-5-methyl-4-oxo-2,3,4,5-tetrahydrobenzo[b][1,4]oxazepin-3-yl)picolinamide], the IC50 on RIPK1 was 44.9 nM; in the test on L929 cells, 2640 nM; in the test with U937 cells it was 281 nM.
As to `Cc1nc(Cc2ccnc(C(=O)N[C@H]3COc4ccc(C#CC5CCOCC5)cc4N(C)C3=O)c2)cs1` [I-90, (S)—N-(5-methyl-4-oxo-7-((tetrahydro-2H-pyran-4-yl)ethynyl)-2,3,4,5-tetrahydrobenzo[b][1,4]oxazepin-3-yl)-4-((2-methylthiazol-4-yl)methyl)picolinamide], the concentration for half-maximal inhibition (IC50) on RIPK1 was determined as 20 nM; in the test with L929 cells, 20.5 nM; in the test with U937 cells it was 1.9 nM.
With `CCc1nc(Cc2ccnc(C(=O)N[C@H]3COc4ccc(C#CC(C)(C)O)cc4N(C)C3=O)c2)cs1` [I-98, (S)-4-((2-ethylthiazol-4-yl)methyl)-N-(7-(3-hydroxy-3-methylbut-1-yn-1-yl)-5-methyl-4-oxo-2,3,4,5-tetrahydrobenzo[b][1,4]oxazepin-3-yl)picolinamide], the values for the IC50 at RIPK1, in the test with L929 cells and in the test with U937 cells were 24 nM, 111 nM and 15.5 nM, respectively.
Regarding `CN1C(=O)[C@@H](NC(=O)c2cc(Cc3cccc(F)n3)ccn2)COc2ccc(C#CC3CCOCC3)cc21` [I-53, (S)-4-((6-fluoropyridin-2-yl)methyl)-N-(5-methyl-4-oxo-7-((tetrahydro-2H-pyran-4-yl)ethynyl)-2,3,4,5-tetrahydrobenzo[b][1,4]oxazepin-3-yl)picolinamide], the IC50 on RIPK1 was determined as 35.1 nM; with L929 cells it was 114 nM; in the test with U937 cells, 3 nM.

Source of the values: patent publication US12156880B2, “Heterocyclic RIP1 kinase inhibitors” (Rigel Pharmaceuticals, Inc., priority 2021, dated 2024).
